Data: article PMC10144058, “New Hybrid Scaffolds Based on 5-FU/Curcumin: Synthesis, Cytotoxic, Antiproliferative and Pro-Apoptotic Effect” (Pharmaceutics, 2023)
Where two headings read alike, the source gives them in different places.

Columns and labels:
CHO-K1 cells = experiment: Cell viability, sulforhodamine B (SRB) assay, non-malignant cells; assay type: cell-based, Chinese Hamster; details: Cricetulus griseus
Protocol: (§1) SW480 (colon adenocarcinoma) and SW620 (derived metastatic) malignant cell lines, and the non-malignant lines HaCaT (human keratinocytes) and CHO-K1 (Chinese Hamster Ovary), were obtained from the European Collection of Authenticated Cell Cultures (ECACC, Porton Down, Salisbury, UK). The cells were maintained in Dulbecco’s Modified Eagle’s Medium (DMEM), supplemented with 10% equine serum previously inactivated at 56 °C, 1% penicillin/streptomycin, and 1% non-essential amino acids, and incubated at 37 °C in an atmosphere with 5% CO2. To carry out the experiments, the serum was diluted to 3% and additionally supplemented with […] insulin, […] transferrin, and 5 ng/mL selenium. Cells were used for experimentation when they reached 80–90% confluence, using a 1X trypsin enzymatic disintegration method. To avoid contamination by Mycoplasma spp., cell cultures were periodically analyzed by polymerase chain reaction (PCR).
(§2) Cell viability was evaluated with a sulforhodamine B (SRB) assay. This technique provides an index of protein contents in living and adherent cells, whose optical density can be related to cell concentration. Initially, 20,000 cells were seeded per well in 96-well culture plates. An initial adherence period of 24 h was performed at 37 °C, 5% CO2, and after this, the medium was replaced by another that contained the hybrid compounds in different concentrations. Then, the cells were left incubating for 24 and 48 h under the same conditions previously described. After the respective incubation times, the cells were fixed with trichloroacetic acid (50% v/v) for 1 h at 4 °C and stained with 0.4% (p/v) of SRB. Subsequently, washings with 1% acetic acid were carried out to eliminate possible nonspecific bindings, and after solubilization with 10 mM Tris-base, the absorbance was read at 492 nm in a microplate reader (Mindray MR-96A). All the experiments were carried out in triplicate.

SW620 cells [1] = experiment: Cell viability, sulforhodamine B (SRB) assay; assay type: cell-based, human
Protocol: as §1, §2

SW620 cells [2] = experiment: Antiproliferative activity (SRB, 0-8 days); assay type: cell-based, human; details: for viability at 2.5 µM / viability at 40 µM: Homo sapiens, read-out: Cell Viability (%) ± SE; for viability at 2.5 µM: SW620, 2.5 µM; for viability at 40 µM: SW620, 40 µM
Protocol: For this experiment, the same colorimetric method (SRB) from the evaluation of cell viability was used, although with some modifications. Initially, 2500 cells per well were seeded in 96-well culture plates, and a 24 h adherence period was performed at 37 °C in a 5% CO2 atmosphere. […] For this assay, incubation periods of 0, 2, 4, 6, and 8 days were used, and the fixation, staining, and reading conditions were the same as those previously described for the cytotoxicity assay.

SW620 cells [3] = experiment: Cell cycle analysis (PI, flow cytometry); assay type: cell-based, human; details: SW620, treated with IC50 value, 48 h
Protocol: The method used for the recognition of cell cycle phases (G0/G1, S, G2/M) was based on staining with a fluorescent dye (propidium iodide—PI), as a direct relationship between fluorescence intensity and DNA content can be established. For this method, 250,000 cells/well were initially seeded in 6-well culture plates with an adherence period of 24 h at 37 °C in a 5% CO2 atmosphere. […] After treatment, cells were obtained by mechanical disaggregation, and the cell pellet was centrifuged and washed with a versene buffer. The cell pellet was fixed with 1.8 mL of cold 70% ethanol and kept at 4 °C overnight. Subsequently, two washes with a versene buffer were performed, and the pellet was resuspended in 300 µL of PBS containing 0.25 mg/mL of RNAsa and 0.1 mg/mL of PI. After a 30 min period of dark incubation, the fluorescence of 10,000 cells was analyzed using a FACS Canto II flow cytometer. The PI signal was analyzed with excitation at 488 nm using a sapphire laser, and fluorescence was detected at 610 nm. The data analysis was performed with FlowJo 10.8.1 software.

HaCaT cells = experiment: Cell viability, sulforhodamine B (SRB) assay, non-malignant cells; assay type: cell-based; details: Homo sapiens
Protocol: as §1, §2

SW620 cells [4] = experiment: Mitochondrial membrane potential (DiOC6/PI, flow cytometry); assay type: cell-based, human; details: SW620, treated with IC50, 48 h
Protocol: The fluorescent dyes PI and DIOC6 (3,3’-dihexyloxacarbocyanine iodide) were used to observe the depolarization of the mitochondrial membrane as well as possible cell membrane damage. For this method, 250,000 cells/well were initially seeded in 6-well culture plates during a 24 h adherence period at 37 °C in a 5% CO2 atmosphere. […] After treatment, cells were obtained by mechanical disaggregation, stained with DiOC6 and PI, and incubated at room temperature for 30 min in the dark. Ten thousand events were analyzed by flow cytometry with excitation at 488 nm and emission detection with green (530/15 nm) and red (610/20 nm) filters.

SW480 cells = experiment: Cell viability, sulforhodamine B (SRB) assay; assay type: cell-based; details: Homo sapiens
Protocol: as §1, §2

[5] = tested on: caspase 3, caspase 7, caspase 8 and p53 in SW620 cells; experiment: Apoptotic biomarkers (ELISA); assay type: cell-based, human; details: SW620, treated with IC50, 48 h, vs control
Protocol: To provide an approach to the possible molecular mechanisms through which the hybrid compounds induce an effect on the cell lines, different proteins related to the process of death by apoptosis were determined. For this method, 1,000,000 cells were initially seeded per Petri dish, with an adherence period of 24 h at 37 °C in a 5% CO2 atmosphere. […] Later, the consumed medium was discarded, and after the addition of the versene buffer, the cells were obtained by mechanical disaggregation. The cells were then lysed with a cell lysis buffer and centrifuged to obtain the supernatant, which was used to determine the biomarkers of interest by enzyme-linked immunosorbent assays. These ELISA kits were provided by Elabscience Biotechnology Co., Houston, TX, USA [26].

SW620 cells [6] = experiment: Cell death induction (Annexin-V/PI, flow cytometry); assay type: cell-based, human; details: SW620, treated with IC50, 48 h
Protocol: For this method, 250,000 cells/well were initially seeded in 6-well culture plates during a 24 h adherence period at 37 °C in a 5% CO2 atmosphere. […] After treatment, cells were obtained by mechanical disaggregation, resuspended in a solution with Annexin-V-FLUOS and PI, and incubated for 20 min in the dark before flow cytometry analysis.

[7] = SW-620, 48 h, 2 days after plating
[8] = SW-620, 96 h, 4 days after plating
[9] = SW-620, 144 h, 6 days after plating
[10] = SW-620, 192 h, 8 days after plating

COc1cc(/C=C/C(=O)c2ccc(OCCCCCCn3cc(Cn4cc(F)c(=O)[nH]c4=O)nn3)cc2)ccc1O [Compound 6e, (E)-5-fluoro-1-((1-(6-(4-(3-(4-hydroxy-3-methoxyphenyl)acryloyl)phenoxy)hexyl)-1H-1,2,3-triazol-4-yl)methyl)pyrimidine-2,4(1H,3H)-dione] gave an IC50 (CHO-K1 cells; CHO-K1, 24 h) of 33.8 ± 2.2 µM, an IC50 (CHO-K1 cells; CHO-K1, 48 h) of 34.5 ± 1.37 µM and an IC50 (SW620 cells [1]; 48 h) of 14.5 ± 1.31 µM. The IC50 (SW620 cells [1]; Homo sapiens, SW-620, 24 h, 24 h) was over 100 µM, the IC50 (SW620 cells [1]; Homo sapiens, SW-620, 48 h, 48 h) was 19.5 µM and the viability at 2.5 µM (SW620 cells [2]; [7]) was 95.6 ± 4.08%. The viability at 40 µM (SW620 cells [2]; [7]) was 8.77 ± 1.85%, the viability at 2.5 µM (SW620 cells [2]; [8]) was 60.65 ± 0.46% and the viability at 40 µM (SW620 cells [2]; [8]) was 0%. It also gave a viability at 2.5 µM (SW620 cells [2]; [9]) of 56.5 ± 2.09%, a viability at 40 µM (SW620 cells [2]; [9]) of 0% and a viability at 2.5 µM (SW620 cells [2]; [10]) of 48.9 ± 3.46%. The viability at 40 µM (SW620 cells [2]; [10]) was 0%, the “inhibition percentages (decrease in cell viability)” value (SW620 cells [2]; SW620, from 20 µM, day 2) was “higher than 30%” and the “Cell cycle distribution, G0/G1” value (SW620 cells [3]) was 20.6%. For the same molecule, the “Cell cycle distribution, G2/M” value (SW620 cells [3]) was 8.8%, the “Cell cycle distribution, S Phase” value (SW620 cells [3]) was 24.5% and the IC50 (HaCaT cells; 24 h) was 76.9 ± 5.87 µM. The IC50 (HaCaT cells; 48 h) was 19.7 ± 1.99 µM, the “Dioc6 High population (live cells with high membrane polarization)” value (SW620 cells [4]) was 96% and the “Dioc6 Low population (cells that lose membrane polarization)” value (SW620 cells [4]) was 0%. For the same molecule, the “PI+ population (membrane damage or dead cells)” value (SW620 cells [4]) was 4.05%, the “changes in the mitochondrial membrane potential” value (SW620 cells [4]) was “do not induce significant changes” and the IC50 (SW480 cells; SW480, 24 h) was 38.8 ± 5.46 µM. For the same molecule, the IC50 (SW480 cells; SW480, 48 h) was 18.2 ± 0.88 µM, the “levels of executioner caspases 3 and 7” value [5] was “Significantly increased levels” and the “Annexin V/PI quadrant Q4 (viable cells)” value (SW620 cells [6]) was 84.7%.
